In patent US11452717B2, “Small molecule activators of nicotinamide phosphoribosyltransferase (NAMPT) and uses thereof” (Sanford Burnham Prebys Medical Discovery Institute, priority 2017, dated 2022):

What follows are compounds tested against NAMPT enzyme (Homo sapiens (Human), UniProt P43490) (assay: Enzyme Assay and NMN Detection (NAMPT reaction, fluorescence detection of NMN)). Conditions: Table B-1; NAMPT activation, NMN formation.
Assay type: biochemical
Protocol: NAMPT reaction was performed in 50 mM HEPES, pH 7.5, containing 5 mM MgCl2, 0.1% Prionex, 0.005% Tween 20, and 1 mM TCEP at room temperature in Greiner 384-well black polypropylene plates. The concentration of substrates and enzymes in the final assay were as follows: ATP (120 uM), nicotinamide (5 uM), phosphoribosylpyrophosphate (6.25 uM), NAMPT enzyme (16 nM), pyrophosphatase (0.04 U/ml) in the final reaction volume 6 uL. Following 2 h incubation the reaction was stopped by addition 2.5 ul 20% acetophenone in dimethyl sulfoxide (DMSO) and 2.5 ul 2 MKOH. Plates were centrifuges and added with 10.5 ul 88% formic acid. The fluorescence (ex380/em460) was measured following another short incubation and 30 min incubation. The increased concentration of NMN was determined from a calibration curve obtained at the time of experiment.

Chain of NAMPT enzyme (P43490 whole entry, species assumed): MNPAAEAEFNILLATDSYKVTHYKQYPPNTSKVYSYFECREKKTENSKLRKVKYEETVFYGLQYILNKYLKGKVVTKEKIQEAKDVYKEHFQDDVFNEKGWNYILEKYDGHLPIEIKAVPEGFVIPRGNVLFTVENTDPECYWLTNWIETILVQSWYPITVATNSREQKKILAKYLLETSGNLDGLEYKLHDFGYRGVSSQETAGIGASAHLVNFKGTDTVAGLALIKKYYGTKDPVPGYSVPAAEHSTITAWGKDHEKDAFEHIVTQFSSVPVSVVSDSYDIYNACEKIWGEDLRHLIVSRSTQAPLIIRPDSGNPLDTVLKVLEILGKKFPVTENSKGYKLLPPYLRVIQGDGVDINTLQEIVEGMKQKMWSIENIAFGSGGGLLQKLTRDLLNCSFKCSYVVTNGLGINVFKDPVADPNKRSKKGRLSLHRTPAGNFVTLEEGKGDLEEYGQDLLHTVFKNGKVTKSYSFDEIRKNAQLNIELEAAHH

EC50 [nM] | SMILES
> 20000 | CCOC(=O)c1ccc(NC(=O)NCc2cc[nH]n2)cc1 [Ethyl 4-(3-((1H-pyrazol-3-yl)methyl)ureido)benzoate]
> 20000 | CCOC(=O)c1ccc(NC(=O)NCc2c(C)noc2C)cc1 [Ethyl 4-(3-((3,5-dimethylisoxazol-4-yl)methyl)ureido)benzoate]
> 20000 | CCOC(=O)c1ccc(NC(=O)NCc2cnc[nH]2)cc1 [Ethyl 4-(3-((1H-imidazol-5-yl)methyl)ureido)benzoate]
< 100 | CC(C)N(Cc1ccccc1)S(=O)(=O)c1ccc(NC(=O)NCc2cnco2)cc1 [N-Benzyl-N-isopropyl-4-(3-oxazol-5-ylmethyl-ureido)-benzenesulfonamide]
< 100 | COc1ccc(S(=O)(=O)c2ccc(NC(=O)NCc3cn[nH]c3)cc2)cc1 [1-[4-(4-Methoxy-benzenesulfonyl)-phenyl]-3-(1H-pyrazol-4-ylmethyl)-urea]

Same assay, conditions: Table B-2; NAMPT activation, NMN formation

EC50 [nM] | SMILES
> 20000 | O=C(NCc1ccncc1)Nc1ccc(S(=O)(=O)Nc2ccccn2)cc1 [N-Pyridin-2-yl-4-(3-pyridin-4-ylmethyl-ureido)-benzenesulfonamide]
100 to 2000 | Cc1ccccc1CNC(=O)c1ccc(NC(=O)NCc2ccncc2)cc1 [N-(2-methylbenzyl)-4-(3-(pyridin-4-ylmethyl)ureido)benzamide]
> 20000 | Cc1cc(NS(=O)(=O)c2ccc(NC(=O)NCc3ccncc3)cc2)no1 [N-(5-Methyl-isoxazol-3-yl)-4-(3-pyridin-4-ylmethyl-ureido)-benzenesulfonamide]
> 20000 | Cc1nc(NS(=O)(=O)c2ccc(NC(=O)NCc3ccncc3)cc2)oc1C [N-(4,5-Dimethyl-oxazol-2-yl)-4-(3-pyridin-4-ylmethyl-ureido)-benzenesulfonamide]
100 to 2000 | COc1ccc(NC(=O)c2ccc(NC(=O)NCc3ccncc3)cc2)cc1C [N-(4-methoxy-3-methylphenyl)-4-(3-(pyridin-4-ylmethyl)ureido)benzamide]
> 20000 | O=C(NCc1ccncc1)Nc1ccc(C(=O)NCc2cccc(Cl)c2)cc1 [N-(3-chlorobenzyl)-4-(3-(pyridin-4-ylmethyl)ureido)benzamide]
100 to 2000 | O=C(NCc1ccncc1)Nc1ccc(C(=O)Nc2ccccc2F)cc1 [N-(2-fluorophenyl)-4-(3-(pyridin-4-ylmethyl)ureido)benzamide]
5000 to 20000 | NC(=O)c1ccc(NC(=O)NCc2ccncc2)cc1 [4-(3-(Pyridin-4-ylmethyl)ureido)benzamide]
< 100 | COc1cccc(S(=O)(=O)Nc2ccc(NC(=O)NCc3ccncc3)cc2)c1 [3-Methoxy-N-[4-(3-pyridin-4-ylmethyl-ureido)-phenyl]-benzenesulfonamide]
< 100 | O=C(NCc1ccncc1)Nc1ccc(S(=O)(=O)c2ccccc2)cc1 [1-(4-Benzenesulfonyl-phenyl)-3-pyridin-4-ylmethyl-urea]

Continued, compound first:

SMILES | EC50 [nM]
CN(C)S(=O)(=O)c1ccc(NC(=O)NCc2ccncc2)cc1 [N,N-Dimethyl-4-(3-pyridin-4-ylmethy-ureido)-benzenesulfonamide] | 2000 to 5000
CC(C)N(c1ccc(NC(=O)NCc2ccncc2)cc1)S(=O)(=O)Cc1ccccc1 [N-Isopropyl-C-phenyl-N-[4-(3-pyridin-4-ylmethyl-ureido)-phenyl]-methanesulfonamide] | 2000 to 5000
CN(C)Cc1ccc(CNS(=O)(=O)c2ccc(NC(=O)NCc3ccncc3)cc2)cc1 [N-(4-((dimethylamino)methyl)benzyl)-4-(3-(pyridin-4-ylmethyl)ureido)benzenesulfonamide] | < 100
O=C(NCc1ccncc1)Nc1ccc(S(=O)(=O)N2CCNCC2)cc1 [1-[4-(Piperazine-1-sulfonyl)-phenyl}-3-pyridin-4-ylmethyl-urea] | 5000 to 20000
O=C(NCc1ccncc1)Nc1ccc(C(=O)NC2CCCCC2)cc1 [N-cyclohexyl-4-(3-(pyridin-4-ylmethyl)ureido)benzamide] | 2000 to 5000
COC(=O)c1cccc(CNS(=O)(=O)c2ccc(NC(=O)NCc3ccncc3)cc2)c1 [3-{[4-(3-Pyridin-4-ylmethyl-ureido)-benzenesulfonylamino]-methyl}-benzoic acid methyl ester] | 100 to 2000
CN(Cc1ccccc1C(F)(F)F)S(=O)(=O)c1ccc(NC(=O)NCc2ccncc2)cc1 [N-methyl-4-(3-(pyridin-4-ylmethyl)ureido)-N-(2-(trifluoromethyl)benzyl)benzenesulfonamide] | < 100
O=C(NCc1ccncc1)Nc1ccc(S(=O)(=O)Nc2ccc(Cl)cc2)cc1 [4-(3-pyridin-4-ylmethyl-ureido)-N-(4-chloro-phenyl)-benzenesulfonamide] | 100 to 2000
COC(=O)c1ccc(NC(=O)c2ccc(NC(=O)NCc3ccncc3)cc2)cc1 [Methyl 4-(4-(3-(pyridin-4-ylmethyl)ureido)benzamido)benzoate] | 100 to 2000
O=C(NCc1ccncc1)Nc1ccc(S(=O)(=O)NCCN2CCCC2)cc1 [4-(3-Pyridin-4-ylmethyl-ureido)-N-(2-pyrrolidin-1-yl-ethyl)-benzensulfonamide] | 2000 to 5000
O=C(NCc1ccncc1)Nc1ccc(S(=O)(=O)N(Cc2ccccc2)C2CC2)cc1 [N-Benzyl-N-cyclopropyl-4-(3-pyridin-4-ylmethyl-ureido)-benzenesulfonamide] | < 100
CC(NS(=O)(=O)c1ccc(NC(=O)NCc2ccncc2)cc1)c1ccccc1 (stereo not drawn) [N-(1-phenylethyl)-4-(3-(pyridin-4-ylmethyl)ureido)benzenesulfonamide] | 100 to 2000
N#Cc1ccc(CNS(=O)(=O)c2ccc(NC(=O)NCc3ccncc3)cc2)cc1 [N-(4-cyanobenzyl)-4-(3-(pyridin-4-ylmethyl)ureido)benzenesulfonamide] | 100 to 2000

Same assay, conditions: Table B-3; NAMPT activation, NMN formation

EC50 [nM] | SMILES
> 20000 | CCOC(=O)c1ccc(NC(=S)NCc2ccncc2)cc1 [Ethyl 4-(3-(pyridin-4-ylmethyl)thioureido)benzoate]
> 20000 | O=C(NCc1cccnc1)Nc1ccc(OC(F)(F)F)cc1 [1-(Pyridin-3-ylmethyl)-3-(4-(trifluoromethoxy)phenyl)urea]

SMILES | EC50 [nM]
CCOC(=O)c1ccc(NC(=O)NCc2cncnc2)cc1 [Ethyl 4-(3-(pyrimidin-5-ylmethyl)ureido)benzoate] | > 20000

Same assay, conditions: Table B-4; NAMPT activation, NMN formation

EC50 [nM] | SMILES
2000 to 5000 | O=C(NCc1cn[nH]c1)Nc1ccc(Nc2nc(-c3cccc(Cl)c3)cs2)cc1 [1-{4-[4-(3-Chloro-phenyl)-thiazol-2-ylamino]-phenyl}-3-(1H-pyrazol-4-ylmethyl)-urea]
100 to 2000 | Cc1cccc2c1c(-c1ccc(NC(=O)NCc3cn[nH]c3)cc1)nn2C [1-((1H-Pyrazol-4-yl)methyl)-3-(4-(1,4-dimethyl-1H-indazol-3-yl)phenyl)urea]
100 to 2000 | Cc1cccc(-c2csc(Nc3ccc(NC(=O)NCc4cn[nH]c4)cc3)n2)c1 [1-(1H-Pyrazol-4-ylmethyl)-3-[4-(4-m-tolyl-thiazol-2-ylamino)-phenyl]-urea]

Continued, compound first:

SMILES | EC50 [nM]
O=C(NCc1cn[nH]c1)Nc1ccc(S(=O)(=O)c2ccc(F)c(F)c2)cc1 [1-[4-(3,4-Difluoro-benzenesulfonyl)-phenyl]-3-(1H-pyrazol-4-ylmethyl)-urea] | 100 to 2000
O=C(NCc1cn[nH]c1)Nc1ccc(S(=O)(=O)c2ccc(C(F)(F)F)cc2)cc1 [1-((1H-Pyrazol-4-yl)methyl)-3-(4-((4-(trifluoromethyl)phenyl)sulfonyl)phenyl)urea] | 100 to 2000
O=C(NCc1cn[nH]c1)Nc1ccc(S(=O)(=O)c2cnccn2)cc1 [1-[4-(Pyrazine-2-sulfonyl)-phenyl]-3-(1H-pyrazol-4-ylmethyl)-urea] | 100 to 2000

Same assay, conditions: Table B-5; NAMPT activation, NMN formation

EC50 [nM] | SMILES
100 to 2000 | O=C(NCc1cnco1)Nc1ccc(-c2cccc3scnc23)cc1 [1-(4-Benzothiazol-4-yl-phenyl)-3-oxazol-5-ylmethyl-urea]
100 to 2000 | O=C(NCc1cnco1)Nc1ccc(S(=O)(=O)c2cccc(F)c2)cc1 [1-(4-((3-Fluorophenyl)sulfonyl)phenyl)-3-(oxazol-5-ylmethyl)urea]

Same assay, conditions: Table B-6; NAMPT activation, NMN formation

EC50 [nM] | SMILES
100 to 2000 | O=C(NCc1ccncc1)Nc1ccc(-c2n[nH]c3ccccc23)cc1 [1-[4-(1H-Indazol-3-yl)-phenyl]-3-pyridin-4-ylmethyl-urea]
> 20000 | O=C(NCc1ccncc1)Nc1ccc(-c2cccc3[nH]cnc23)cc1 [1-[4-(1H-Benzoimidazol-4-yl)-phenyl]-3-pyridin-4-ylmethyl-urea]
100 to 2000 | O=C(NCc1ccncc1)Nc1ccc(S(=O)(=O)c2nccs2)cc1 [Pyridin-4-ylmethyl-3-[4-(thiazole-2-sulfonyl)-phenyl]-urea]
5000 to 20000 | O=C(NCc1ccncc1)Nc1ccc(-c2ncc(Cc3ccccc3)s2)cc1 [1-(4-(5-Benzylthiazol-2-yl)phenyl)-3-(pyridin-4-ylmethyl)urea]
100 to 2000 | Cn1nc(-c2ccc(NC(=O)NCc3ccncc3)cc2)c2cc(F)ccc21 [1-[4-(5-Fluoro-1-methyl-1H-indazol-3-yl)-phenyl]-3-pyridin-4-ylmethyl-urea]
100 to 2000 | O=C(NCc1ccncc1)Nc1ccc(Nc2nc(-c3ccccc3)cs2)cc1 [1-(4-((4-Phenylthiazol-2-yl)amino)phenyl)-3-(pyridin-4-ylmethyl)urea]
100 to 2000 | O=C(NCc1ccncc1)Nc1ccc(S(=O)(=O)c2cnccn2)cc1 [1-[4-(Pyrazine-2-sulfonyl)-phenyl]-3-pyridin-4-ylmethyl-urea]

Second part, the compound before the results:

SMILES | EC50 [nM]
N#Cc1ccc(CS(=O)(=O)Nc2ccc(NC(=O)NCc3ccncc3)cc2)cc1 [C-(4-Cyano-phenyl)-N-[4-(3-pyridin-4-ylmethyl-ureido)-phenyl]-methanesulfonamide] | 100 to 2000
N#Cc1ccc(-c2ccccc2S(=O)(=O)c2ccc(NC(=O)NCc3ccncc3)cc2)cc1 [1-(4-((4′-Cyano-[1,l′-biphenyl]-2-yl)sulfonyl)phenyl)-3-(pyridin-4-ylmethyl)urea] | 5000 to 20000
